Measured values as given in paper PMC10914731, “Homo-BacPROTAC-induced degradation of ClpC1 as a strategy against drug-resistant mycobacteria” (Nature Communications, 2024).
In brackets after ≈: the same amount, converted by molar mass. Several values for one entry are separate records, joined by “and”; a condition that tells them apart may be missing. Identical values can stand only once. Like-named read-outs stand apart in the source and are kept apart here. *1 amine or outer side, *2 acyl side, *3 side chain or, on linkers, in order; H or OH if unused. Where a SMILES comes first, the peptide text is derived from it. [ ]: non-standard residue; d: D form. X1 = C#CCn1cc(C[C@H](N[*:1])C(=O)[*:2])c2ccccc21; NMeLeu(5-OH,4R) = CN[C@@H](C[C@@H](C)CO)C(=O)O; Phe(βR-OMe) = CO[C@H](c1ccccc1)[C@H](N)C(=O)O; NMeL = CN[C@@H](CC(C)C)C(=O)O

Columns and labels:
[1] = system: Staphylococcus aureus; experiment: MIC ESKAPES panel, Staphylococcus aureus; format: cell-based
Procedure: (§1) Minimum inhibitory concentration (MIC) against ESKAPES panel of Gram positive and Gram negative pathogens (Enterococcus faecium, Staphylococcus aureus, Klebsiella pneumoniae, Acinetobacter baumannii, Pseudomonas aeruginosa, Enterobacter cloacae and Salmonella typhimurium [ESKAPES panel]) were determined at the FNDR by the standard broth dilution method [CLSI, M100]. […] Mueller Hinton broth (MHB) medium was used to grow ESKAPES panel strains. The individual cultures were added as 200 μL (inoculum of 3–7 × 10^5 cfu/ml) to the respective assay plates in each well to all columns, except the media control (200 μL of medium). […] The assay plates were incubated at 37 °C, and the results were noted on the 2nd day as turbidometric readout. The clear wells indicated inhibition of growth, while the turbid wells indicated uninhibited growth.

[2] = system: Msm 607; experiment: microbe, parasite or virus in culture; format: cell-based
[3] = system: Mtb (katG del) ATCC 35822; experiment: microbe, parasite or virus in culture; format: cell-based; settings: Mycobacterium tuberculosis
[4] = system: Mtb # 8673; experiment: microbe, parasite or virus in culture; format: cell-based
[5] = system: Mycobacterium avium; experiment: microbe, parasite or virus in culture; format: cell-based
[6] = system: Caco-2 monolayers; experiment: in vitro; settings: human, Caco-2
How it was run: (§2)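 Values are bidirectional Caco-2 apparent permeabilities, P(A−B) and P(B−A), given in 10^-6 cm s-1. The efflux ratio divides P(B−A) by P(A−B), and intrinsic permeability averages the two directions.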

[7] = in vitro; settings: human
How it was run: as §2

[8] = system: M. tuberculosis H37Rv (ATCC 27294); experiment: microbe, parasite or virus in culture; format: cell-based
[9] = system: Pseudomonas aeruginosa; experiment: MIC ESKAPES panel, Pseudomonas aeruginosa; format: cell-based
Procedure: as §1

[10] = system: Msm #607; experiment: Minimum bactericidal concentration (MBC), Msm #607; format: cell-based, Mycobacterium smegmatis; settings: Mycolicibacterium smegmatis
[11] = system: Mtb ATCC 35825; experiment: microbe, parasite or virus in culture; format: cell-based
[12] = Hepatocyte stability, mice; format: in vitro ADME; settings: mouse, pH 7.4
How it was run: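 Parent depletion by HPLC-MS/MS in mouse hepatocyte suspension (50% serum, ~1 million cells/mL) with 1 µM compound over up to 6 h at 37 °C. Half-lives were scaled to % Qh using the well-stirred liver model.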

C#CCn1cc(C[C@@H]2NC(=O)[C@H](C(C)C)NC(=O)[C@H](CC(C)C)N(C)C(=O)[C@H](C(C)C)NC(=O)[C@H]([C@H](OC)c3ccccc3)NC(=O)[C@H](C)NC(=O)[C@H](C[C@@H](C)CO)N(C)C2=O)c2ccccc21 [Compound 5] (cyclo(A[Phe(βR-OMe)]V[NMeL]V[X1][NMeLeu(5-OH,4R)]))
MIC ([1]; Gram-Positive Bacteria, replicates 1-3): >50 µM | MIC ([1]; Staphylococcus aureus, Gram positive, n = 3 well replicates): > 50 µM | MIC ([1]; Staphylococcus aureus, Gram-Positive Bacteria, replicates 1-3): > 47 µg/mL | MIC ([2]; Mycolicibacterium smegmatis, 607, read-out: MIC Msm 607): 25 µM (≈ 23.5 µg/mL) | MIC ([2]; Mycolicibacterium smegmatis, 607, read-out: MIC Msm #607, individual example (Supplementary Table 11)): 25 µM and 23.5 µg/mL | MIC ([2]; Mycolicibacterium smegmatis, 607, read-out: Msm 607 MIC, single determinations): 25 µM (≈ 23.5 µg/mL) | MIC ([2]; Mycolicibacterium smegmatis, ATCC607, Set-1, read-out: MIC (Msm ATCC607) Set-1): 12.5 µM and 11.8 µg/mL | MIC ([2]; Mycolicibacterium smegmatis, ATCC607, Set-2, read-out: MIC (Msm ATCC607) Set-2): 25 µM and 23.5 µg/mL | MIC ([2]; Mycolicibacterium smegmatis, ATCC607, Set-3, done at a different day than Set 1 and Set 2, read-out: MIC (Msm ATCC607) Set-3): 12.5 µM and 11.8 µg/mL | MIC ([2]; Mycolicibacterium smegmatis, ATCC607, mean of 3 experiments ± SD, read-out: MIC including standard deviations (Msm ATCC607)): 16.6 µM and 15.7 µg/mL | MIC ([3]; ATCC35822, M. tuberculosis ATCC 35822, single well replicates): 0.781 µM (≈ 0.735 µg/mL) | MIC ([3]; ATCC35822, Mtb (katG del) ATCC 35822, mean ± SD, n = 3 well replicates): 0.8 µM (≈ 0.753 µg/mL) | MIC ([4]; Mycobacterium tuberculosis, mean, n = 2 well replicates): 0.2 µM and 0.2 µg/mL | MIC ([4]; Mycobacterium tuberculosis, single well replicates): 0.19 µM and 0.18 µg/mL | MIC ([4]; single well replicates): 0.19 µM (≈ 0.179 µg/mL) | MIC Mtb # 8673 ([4]; single well replicates): 0.18 µg/mL (≈ 0.191 µM) | MIC ([5]; Experiment 1, read-out: MIC Mycobacterium avium): 6.3 µM | MIC (µg/ml) Mycobacterium avium ([5]; Experiment 2, three replicate columns): 5.88 µg/mL (≈ 6.25 µM) | MIC ([5]; Experiment 2, three replicate columns, read-out: MIC (µM) Mycobacterium avium): 6.25 µM | MIC ([5]; Mycobacterium avium, Experiment 1, read-out: MIC Mycobacterium avium): 5.9 µg/mL | MIC ([5]; Mycobacterium avium, Experiment 2, three replicate columns, read-out: MIC (µM) Mycobacterium avium): 6.25 µM | MIC ([5]; Mycobacterium avium, Experiment 2, three replicate columns, read-out: MIC (µg/ml) Mycobacterium avium): 5.88 µg/mL | MIC ([5]; Mycobacterium avium, mean ± SD, read-out: MIC Mycobacterium avium): 6.3 µM | Caco-2 Int. Perm [6]: 12.1 | Influence of N-methylation on permeability [6]: 9.3 | efflux ratio ([7]; Caco-2): 20.4 | Papp A→B ([7]; Caco-2, CACO permeability PEAB): 0.95 ×10⁻⁶ cm/s | Papp B→A ([7]; Caco-2, CACO permeability PEBA): 19 ×10⁻⁶ cm/s | Papp A→B ([7]; Caco-2, Caco-2 permeability P (A-B)): 1.1 ×10⁻⁶ cm/s | Papp B→A ([7]; Caco-2, Caco-2 permeability P (B-A)): 23 ×10⁻⁶ cm/s | MIC ([8]; M. tuberculosis H37Rv 27294, single well replicates, read-out: MIC): 3.125 µM (2×) and 1.56 µM | MIC ([8]; Mycobacterium tuberculosis, M. tuberculosis H37Rv strain, read-out: MIC Mtb H37Rv Mean ± SD): 1.6 µM (≈ 1.51 µg/mL) | MIC ([8]; Mycobacterium tuberculosis, Mtb H37Rv (Supplementary Table 2), read-out: MIC Mtb): 1.6 µM (≈ 1.51 µg/mL) | MIC ([8]; Mycobacterium tuberculosis, Mtb H37Rv, mean ± SD, n = 3 well replicates, read-out: MIC): 2.6 ± 0.9 µM (≈ 2.45 µg/mL) | MIC ([8]; Mycobacterium tuberculosis, Set 1, read-out: MIC (Mtb H37Rv) Set 1): 1.56 µM and 1.47 µg/mL | MIC ([8]; Mycobacterium tuberculosis, Set 2, read-out: MIC (Mtb H37Rv) Set 2): 1.56 µM and 1.47 µg/mL | MIC ([8]; Mycobacterium tuberculosis, Set 3, done at a different day than Set 1 and Set 2, read-out: MIC (Mtb H37Rv) Set 3): 1.56 µM and 1.47 µg/mL | MIC ([8]; Mycobacterium tuberculosis, individual example (Supplementary Table 11), read-out: MIC Mtb H37Rv): 1.6 µM and 1.5 µg/mL | MIC ([8]; Mycobacterium tuberculosis, individual measurements (source data), read-out: Mtb MIC): 1.56 µM (≈ 1.47 µg/mL) | MIC ([8]; Mycobacterium tuberculosis, mean of 3 experiments +/- SD, unit taken from the sets above in the same table, read-out: MIC data (Mtb H37Rv) (+/- SD)): 1.56 µM and 1.47 µg/mL | MIC ([8]; Mycobacterium tuberculosis, single determinations, read-out: Mtb MIC): 1.56 µM (≈ 1.47 µg/mL) | MIC ([9]; Gram-Negative Bacteria, replicates 1-3): >50 µM | MIC ([9]; Pseudomonas aeruginosa, Gram negative, n = 3 well replicates): > 50 µM | MIC ([9]; Pseudomonas aeruginosa, Gram-Negative Bacteria, replicates 1-3): > 47 µg/mL | MBC ([10]; ATCC607, read-out: MBC (from Set 3) Msm ATCC 607): > 47 µg/mL and > 50 µM | MBC ([10]; read-out: MBC Msm #607, individual example): > 50 µM and > 47.1 µg/mL | MIC ([11]; Mycobacterium tuberculosis, ATCC35825, mean, n = 2 well replicates): 0.2 µM and 0.2 µg/mL | MIC ([11]; Mycobacterium tuberculosis, ATCC35825, single well replicates): 0.18 µg/mL and 0.19 µM | MIC ([11]; single well replicates): 0.19 µM (≈ 0.179 µg/mL) | MIC Mtb ATCC 35825 ([11]; single well replicates): 0.18 µg/mL (≈ 0.191 µM) | Hepatocyte Mice [12]: 58 %Qh
